Reference: ChEMBL document CHEMBL1201862, “PubChem BioAssay data set” (2004)
The source made the active and inactive calls.

Experiments:
Type in all cases: functional
[1] = molecular target: Protein kinase C theta type (Homo sapiens, UniProt Q04759); assay: Navigating the Kinome. Panel member name: PRKCQ
[2] = molecular target: Ribosomal protein S6 kinase alpha-3 (Homo sapiens, UniProt P51812);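 note: measured within a kinome-wide profiling panel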
[3] = molecular target: Dual specificity mitogen-activated protein kinase kinase 1 (Homo sapiens, UniProt Q02750); assay: Navigating the Kinome. Panel member name: MAP2K1
[4] = molecular target: Serine/threonine-protein kinase TBK1 (Homo sapiens, UniProt Q9UHD2); assay: Navigating the Kinome. Panel member name: TBK1
[5] = molecular target: Proto-oncogene tyrosine-protein kinase receptor Ret (Homo sapiens, UniProt P07949);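 note: measured within a kinome-wide profiling panel, RET as the panel member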
[6] = molecular target: Tyrosine-protein kinase receptor TYRO3 (Homo sapiens, UniProt Q06418);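 note: TYRO3 value obtained as one member of a kinome-wide profiling panel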
[7] = molecular target: Death-associated protein kinase 3 (Homo sapiens, UniProt O43293);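 note: measured as one member of a kinome-wide profiling panel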
Activin receptor type-1 = molecular target: T1, Activin receptor type-1 (Homo sapiens, UniProt Q04771); assay: Navigating the Kinome. Panel member name: ACVR1
T1 sequence (Q04771 whole entry): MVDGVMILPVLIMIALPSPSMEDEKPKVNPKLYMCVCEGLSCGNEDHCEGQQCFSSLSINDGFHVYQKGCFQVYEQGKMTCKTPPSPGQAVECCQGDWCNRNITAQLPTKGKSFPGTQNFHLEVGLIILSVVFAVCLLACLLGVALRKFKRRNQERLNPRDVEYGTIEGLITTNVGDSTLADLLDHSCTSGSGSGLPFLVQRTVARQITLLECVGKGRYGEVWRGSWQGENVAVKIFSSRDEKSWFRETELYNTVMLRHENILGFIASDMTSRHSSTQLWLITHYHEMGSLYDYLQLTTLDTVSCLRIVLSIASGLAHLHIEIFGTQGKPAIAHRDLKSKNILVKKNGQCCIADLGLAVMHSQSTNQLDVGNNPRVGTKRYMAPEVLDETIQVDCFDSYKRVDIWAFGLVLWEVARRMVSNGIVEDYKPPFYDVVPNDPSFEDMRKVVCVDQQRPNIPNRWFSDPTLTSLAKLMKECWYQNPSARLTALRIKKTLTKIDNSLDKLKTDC

[8] = molecular target: Tyrosine-protein kinase BTK (Homo sapiens, UniProt Q06187)
[9] = molecular target: MAP/microtubule affinity-regulating kinase 3 (Homo sapiens, UniProt P27448);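 note: MARK3 affinity measured as one member of a kinome panel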
[10] = molecular target: Leucine-rich repeat serine/threonine-protein kinase 2 (Homo sapiens, UniProt Q5S007);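 note: value from a broad kinome-wide panel profiling study in which LRRK2 was one of the kinases tested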
[11] = molecular target: Tyrosine-protein kinase Fyn (Homo sapiens, UniProt P06241)
[12] = molecular target: Cyclin-dependent kinase 9 (Homo sapiens, UniProt P50750);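 note: value from the CDK9 entry of a kinome-spanning kinase panel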
[13] = molecular target: Mitogen-activated protein kinase kinase kinase kinase 4 (Homo sapiens, UniProt O95819)
[14] = molecular target: Macrophage colony-stimulating factor 1 receptor (Homo sapiens, UniProt P07333);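 note: value comes from the Navigating the Kinome screening panel, CSF1R member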
[15] = molecular target: Inhibitor of nuclear factor kappa-B kinase subunit epsilon (Homo sapiens, UniProt Q14164); assay: Navigating the Kinome. Panel member name: IKBKE
[16] = molecular target: Leukocyte tyrosine kinase receptor (Homo sapiens, UniProt P29376); assay: Navigating the Kinome. Panel member name: LTK

Measured: Ki

Chain of Cyclin-dependent kinase 9 (P50750 whole entry): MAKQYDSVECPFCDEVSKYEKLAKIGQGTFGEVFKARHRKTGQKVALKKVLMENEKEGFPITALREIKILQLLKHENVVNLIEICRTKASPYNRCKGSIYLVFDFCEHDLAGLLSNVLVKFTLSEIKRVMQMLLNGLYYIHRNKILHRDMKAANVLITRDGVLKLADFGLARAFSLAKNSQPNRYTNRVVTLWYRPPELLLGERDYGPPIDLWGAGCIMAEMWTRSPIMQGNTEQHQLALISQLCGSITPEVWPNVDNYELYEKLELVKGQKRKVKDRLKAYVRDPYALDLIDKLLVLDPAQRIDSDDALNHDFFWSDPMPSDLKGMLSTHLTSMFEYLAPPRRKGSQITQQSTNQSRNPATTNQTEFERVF
Chain of Proto-oncogene tyrosine-protein kinase receptor Ret (P07949 whole entry): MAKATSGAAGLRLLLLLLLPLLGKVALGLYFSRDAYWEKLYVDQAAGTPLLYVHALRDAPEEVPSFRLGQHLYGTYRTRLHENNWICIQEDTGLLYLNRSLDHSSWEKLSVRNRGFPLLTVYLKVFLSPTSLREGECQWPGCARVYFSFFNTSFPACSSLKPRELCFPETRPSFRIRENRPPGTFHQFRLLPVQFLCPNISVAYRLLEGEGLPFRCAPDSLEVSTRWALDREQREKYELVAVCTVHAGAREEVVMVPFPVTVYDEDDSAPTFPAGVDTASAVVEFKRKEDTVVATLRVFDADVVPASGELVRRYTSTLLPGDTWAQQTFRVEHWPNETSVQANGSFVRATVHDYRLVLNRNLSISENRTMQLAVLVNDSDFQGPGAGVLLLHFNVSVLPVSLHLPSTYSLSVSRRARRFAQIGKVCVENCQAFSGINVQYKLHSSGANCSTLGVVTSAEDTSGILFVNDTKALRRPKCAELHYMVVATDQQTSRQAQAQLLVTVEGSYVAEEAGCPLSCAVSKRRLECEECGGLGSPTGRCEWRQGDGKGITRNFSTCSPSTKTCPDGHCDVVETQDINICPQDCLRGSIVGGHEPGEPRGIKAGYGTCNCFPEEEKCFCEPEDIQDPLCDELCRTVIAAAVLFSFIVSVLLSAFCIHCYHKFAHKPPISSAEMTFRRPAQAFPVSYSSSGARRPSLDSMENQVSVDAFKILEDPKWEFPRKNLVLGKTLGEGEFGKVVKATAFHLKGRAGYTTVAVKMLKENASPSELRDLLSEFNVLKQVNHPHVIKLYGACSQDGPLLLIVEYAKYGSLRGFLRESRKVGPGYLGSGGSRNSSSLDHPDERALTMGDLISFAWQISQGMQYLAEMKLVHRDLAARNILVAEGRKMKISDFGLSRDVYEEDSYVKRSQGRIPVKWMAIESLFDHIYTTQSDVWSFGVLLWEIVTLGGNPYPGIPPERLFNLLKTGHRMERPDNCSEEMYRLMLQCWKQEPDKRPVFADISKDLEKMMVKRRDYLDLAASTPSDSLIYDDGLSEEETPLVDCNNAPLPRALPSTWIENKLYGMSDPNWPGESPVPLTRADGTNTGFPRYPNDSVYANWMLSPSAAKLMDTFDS
Chain of Leucine-rich repeat serine/threonine-protein kinase 2 (Q5S007 whole entry): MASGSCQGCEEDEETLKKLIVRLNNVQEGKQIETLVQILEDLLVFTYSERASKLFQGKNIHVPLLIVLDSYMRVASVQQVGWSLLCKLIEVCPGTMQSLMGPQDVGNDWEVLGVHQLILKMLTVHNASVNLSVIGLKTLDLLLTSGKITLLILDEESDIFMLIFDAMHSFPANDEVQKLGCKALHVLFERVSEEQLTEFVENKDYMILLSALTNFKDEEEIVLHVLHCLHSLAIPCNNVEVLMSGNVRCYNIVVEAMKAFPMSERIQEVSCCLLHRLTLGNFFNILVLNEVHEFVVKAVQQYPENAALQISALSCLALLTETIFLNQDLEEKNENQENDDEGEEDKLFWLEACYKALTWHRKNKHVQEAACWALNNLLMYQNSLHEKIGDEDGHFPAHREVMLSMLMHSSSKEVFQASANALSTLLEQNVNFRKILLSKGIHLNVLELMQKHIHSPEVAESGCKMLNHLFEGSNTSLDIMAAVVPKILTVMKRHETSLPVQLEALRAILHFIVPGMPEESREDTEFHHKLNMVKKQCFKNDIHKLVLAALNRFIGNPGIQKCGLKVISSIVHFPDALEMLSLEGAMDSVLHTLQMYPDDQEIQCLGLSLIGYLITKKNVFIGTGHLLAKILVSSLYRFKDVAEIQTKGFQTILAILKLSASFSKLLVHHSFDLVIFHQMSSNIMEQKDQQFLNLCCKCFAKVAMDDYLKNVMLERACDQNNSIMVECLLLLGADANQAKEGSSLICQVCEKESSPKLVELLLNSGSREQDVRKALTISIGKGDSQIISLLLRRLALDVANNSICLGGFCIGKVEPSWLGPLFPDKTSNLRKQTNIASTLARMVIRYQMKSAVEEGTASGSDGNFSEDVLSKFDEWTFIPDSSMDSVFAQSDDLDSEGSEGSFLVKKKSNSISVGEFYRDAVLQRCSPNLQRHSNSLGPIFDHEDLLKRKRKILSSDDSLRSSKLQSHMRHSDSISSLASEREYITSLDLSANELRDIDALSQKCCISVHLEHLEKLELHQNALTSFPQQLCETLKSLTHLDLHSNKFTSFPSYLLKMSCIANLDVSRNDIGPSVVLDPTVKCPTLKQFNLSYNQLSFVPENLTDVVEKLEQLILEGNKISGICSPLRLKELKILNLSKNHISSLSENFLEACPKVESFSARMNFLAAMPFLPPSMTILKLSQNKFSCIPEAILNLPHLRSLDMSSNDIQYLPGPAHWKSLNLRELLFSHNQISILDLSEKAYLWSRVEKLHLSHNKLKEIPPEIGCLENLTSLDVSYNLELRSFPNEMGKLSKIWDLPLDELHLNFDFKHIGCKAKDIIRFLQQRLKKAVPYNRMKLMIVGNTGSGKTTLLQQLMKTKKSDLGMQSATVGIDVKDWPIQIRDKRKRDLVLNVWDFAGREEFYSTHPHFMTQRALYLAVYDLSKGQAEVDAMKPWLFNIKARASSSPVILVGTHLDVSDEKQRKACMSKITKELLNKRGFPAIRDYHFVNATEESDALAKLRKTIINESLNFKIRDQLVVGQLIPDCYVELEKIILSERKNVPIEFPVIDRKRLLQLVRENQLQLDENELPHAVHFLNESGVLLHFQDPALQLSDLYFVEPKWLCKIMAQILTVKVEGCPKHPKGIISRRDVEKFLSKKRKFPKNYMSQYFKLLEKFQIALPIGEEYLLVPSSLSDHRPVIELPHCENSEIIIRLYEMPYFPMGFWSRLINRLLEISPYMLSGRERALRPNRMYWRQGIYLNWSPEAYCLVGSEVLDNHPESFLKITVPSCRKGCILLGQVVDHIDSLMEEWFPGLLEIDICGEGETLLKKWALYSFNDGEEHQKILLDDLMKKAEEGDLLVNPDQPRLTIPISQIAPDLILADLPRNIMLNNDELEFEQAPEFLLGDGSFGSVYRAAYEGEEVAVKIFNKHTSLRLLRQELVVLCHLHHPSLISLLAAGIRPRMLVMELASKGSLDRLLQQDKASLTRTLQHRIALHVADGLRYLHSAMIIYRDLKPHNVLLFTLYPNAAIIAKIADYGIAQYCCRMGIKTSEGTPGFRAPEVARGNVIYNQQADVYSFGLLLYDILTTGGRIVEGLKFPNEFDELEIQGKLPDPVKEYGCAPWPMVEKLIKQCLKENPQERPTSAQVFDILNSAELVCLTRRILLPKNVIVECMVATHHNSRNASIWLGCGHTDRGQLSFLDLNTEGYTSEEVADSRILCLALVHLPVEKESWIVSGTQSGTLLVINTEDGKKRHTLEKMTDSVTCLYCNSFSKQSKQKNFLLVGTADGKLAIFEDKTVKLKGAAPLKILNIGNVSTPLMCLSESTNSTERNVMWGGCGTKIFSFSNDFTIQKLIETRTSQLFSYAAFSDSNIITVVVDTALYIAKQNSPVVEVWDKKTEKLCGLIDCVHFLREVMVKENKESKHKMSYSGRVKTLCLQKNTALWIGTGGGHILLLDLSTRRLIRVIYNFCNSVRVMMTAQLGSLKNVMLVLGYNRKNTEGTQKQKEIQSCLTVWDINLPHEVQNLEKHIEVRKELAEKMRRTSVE
Chain of MAP/microtubule affinity-regulating kinase 3 (P27448 whole entry): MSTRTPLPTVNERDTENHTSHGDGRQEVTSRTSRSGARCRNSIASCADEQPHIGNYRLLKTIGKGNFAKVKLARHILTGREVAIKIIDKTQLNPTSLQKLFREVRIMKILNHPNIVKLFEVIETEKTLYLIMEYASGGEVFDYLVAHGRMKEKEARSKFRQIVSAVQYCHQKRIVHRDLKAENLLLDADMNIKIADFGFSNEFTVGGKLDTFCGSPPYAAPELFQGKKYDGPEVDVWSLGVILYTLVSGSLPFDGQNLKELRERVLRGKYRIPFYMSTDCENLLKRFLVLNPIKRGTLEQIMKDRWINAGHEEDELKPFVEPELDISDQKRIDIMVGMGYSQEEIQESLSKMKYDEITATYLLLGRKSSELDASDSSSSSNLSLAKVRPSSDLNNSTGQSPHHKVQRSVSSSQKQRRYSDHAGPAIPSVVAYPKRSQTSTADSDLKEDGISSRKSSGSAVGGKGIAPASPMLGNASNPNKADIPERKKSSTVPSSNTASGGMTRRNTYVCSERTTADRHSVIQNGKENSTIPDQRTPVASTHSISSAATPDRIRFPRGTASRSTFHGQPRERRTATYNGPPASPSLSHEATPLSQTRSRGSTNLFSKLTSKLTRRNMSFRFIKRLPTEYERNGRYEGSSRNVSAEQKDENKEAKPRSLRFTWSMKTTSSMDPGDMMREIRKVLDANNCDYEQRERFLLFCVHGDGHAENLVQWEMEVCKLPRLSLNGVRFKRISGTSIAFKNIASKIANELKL

NC(=O)c1ccc(-c2nc(-c3ccc4c(c3)OCO4)c(-c3ccccn3)[nH]2)cc1 [SB-431542]
inactive: [1] > 2.51 µM | [2] > 3.98 µM | [3] > 3.16 µM | [4] > 3.16 µM | [5] > 3.16 µM | [6] > 3.16 µM | [7] > 5.01 µM | Activin receptor type-1 > 3.98 µM | [8] > 6.31 µM | [9] > 5.01 µM | [10] > 2.51 µM | [11] > 6.31 µM | [12] > 1.58 µM | [13] > 5.01 µM | [14] > 2.51 µM | [15] > 3.16 µM | [16] > 2.51 µM
